Test results published in PubChem BioAssay AID248 (DTP/NCI, 2004).
“And” between values parts separate entries of the source, which are not always exact repeats. Identical values can stand only once. Toxic doses and inconclusive results are not listed. No stated cut-off is given here; in the data, active means T/C of 150% or more; inactive means T/C below 125%.

Test system: L1210 leukemia ip in BDF1 mice, survival T/C
Assay: NCI In Vivo Anticancer Drug Screen. Data for tumor model L1210 Leukemia (intraperitoneal) in B6D2F1 (BDF1) mice
Details: higher = longer survival
Outline: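 Each compound was tested against a transplantable tumor grown in mice. The endpoint was survival, with treated animals benchmarked against vehicle controls as a simple ratio.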

[1] = endpoint: mean survival time, dose: 10.0 mg/kg/injection, schedule: Q01DX001 (ip), vehicle: saline
[2] = endpoint: mean survival time, dose: 20.0 mg/kg/injection, schedule: Q01DX001 (ip), vehicle: saline
[3] = endpoint: mean survival time, dose: 40.0 mg/kg/injection, schedule: Q01DX001 (ip), vehicle: saline
[4] = endpoint: mean survival time, dose: 100.0 mg/kg/injection, schedule: Q01DX009 (ip), vehicle: Klucel (hydroxypropylcellulose) (HPC)
[5] = endpoint: mean survival time, dose: 100.0 mg/kg/injection, schedule: Q04DX003 (ip), vehicle: Klucel (hydroxypropylcellulose) (HPC)
[6] = endpoint: mean survival time, dose: 200.0 mg/kg/injection, schedule: Q01DX009 (ip), vehicle: Klucel (hydroxypropylcellulose) (HPC)
[7] = endpoint: mean survival time, dose: 200.0 mg/kg/injection, schedule: Q04DX003 (ip), vehicle: Klucel (hydroxypropylcellulose) (HPC)
[8] = endpoint: mean survival time, dose: 400.0 mg/kg/injection, schedule: Q01DX009 (ip), vehicle: Klucel (hydroxypropylcellulose) (HPC)
[9] = endpoint: mean survival time, dose: 400.0 mg/kg/injection, schedule: Q04DX003 (ip), vehicle: Klucel (hydroxypropylcellulose) (HPC)
[10] = endpoint: mean survival time, dose: 100.0 mg/kg/injection, schedule: Q04DX003 (ip), vehicle: saline with Tween-80
[11] = endpoint: mean survival time, dose: 200.0 mg/kg/injection, schedule: Q04DX003 (ip), vehicle: saline with Tween-80

Measured: T/C

COc1cccc2c1C(=O)c1c(O)c3c(c(O)c1C2=O)C[C@@](O)(C(C)=O)C[C@@H]3OC1CC(NC(C)=O)C(O)C(C)O1 (some centres undefined)
inactive: endpoint: mean survival time, dose: 0.63 mg/kg/injection, schedule: Q01DX001 (ip), vehicle: other 101 % of control | endpoint: mean survival time, dose: 1.25 mg/kg/injection, schedule: Q01DX001 (ip), vehicle: other 103 % of control | endpoint: mean survival time, dose: 1.9 mg/kg/injection, schedule: Q01DX009 (ip), vehicle: saline 103 % of control | endpoint: mean survival time, dose: 2.5 mg/kg/injection, schedule: Q01DX001 (ip), vehicle: other 107 % of control | endpoint: mean survival time, dose: 3.8 mg/kg/injection, schedule: Q01DX009 (ip), vehicle: saline 103 % of control | endpoint: mean survival time, dose: 5.0 mg/kg/injection, schedule: Q01DX001 (ip), vehicle: other 106 % of control | endpoint: mean survival time, dose: 7.5 mg/kg/injection, schedule: Q01DX009 (ip), vehicle: saline 111 % of control | endpoint: mean survival time, dose: 10.0 mg/kg/injection, schedule: Q01DX001 (ip), vehicle: other 111 % of control | [1] 114 % of control | endpoint: mean survival time, dose: 20.0 mg/kg/injection, schedule: Q01DX001 (ip), vehicle: other 123 % of control | [2] 111 % of control | endpoint: mean survival time, dose: 40.0 mg/kg/injection, schedule: Q01DX001 (ip), vehicle: other 122 % of control | [3] 124 % of control | endpoint: mean survival time, dose: 160.0 mg/kg/injection, schedule: Q01DX001 (ip), vehicle: saline 122 % of control | endpoint: mean survival time, dose: 320.0 mg/kg/injection, schedule: Q01DX001 (ip), vehicle: saline 113 % of control | endpoint: median survival time, dose: 75.0 mg/kg/injection, schedule: Q01DX001 (ip), vehicle: propolene glycol 122 % of control and 124 % of control | endpoint: median survival time, dose: 400.0 mg/kg/injection, schedule: Q01DX001 (ip), vehicle: propolene glycol 98 % of control and 88 % of control

CC1(C)C2CC3C(=CCCC3(Cl)C#N)C1C2 (centres undefined)
inactive: [4] 98 % of control | [5] 106 % of control | [6] 102 % of control | [7] 101 % of control | [8] 93 % of control | [9] 97 % of control

O=C(Nc1cccc2ccccc12)NC1CC1
inactive: endpoint: mean survival time, dose: 100.0 mg/kg/injection, schedule: Q01DX009 (ip), vehicle: other 94 % of control | endpoint: mean survival time, dose: 100.0 mg/kg/injection, schedule: Q04DX003 (ip), vehicle: other 97 % of control | endpoint: mean survival time, dose: 200.0 mg/kg/injection, schedule: Q01DX009 (ip), vehicle: other 94 % of control | endpoint: mean survival time, dose: 200.0 mg/kg/injection, schedule: Q04DX003 (ip), vehicle: other 96 % of control | endpoint: mean survival time, dose: 400.0 mg/kg/injection, schedule: Q01DX009 (ip), vehicle: other 94 % of control | endpoint: mean survival time, dose: 400.0 mg/kg/injection, schedule: Q04DX003 (ip), vehicle: other 87 % of control

CCCCCCCCOP(=O)(N1CC1C)N1CC1C (centres undefined)
inactive: endpoint: mean survival time, dose: 33.0 mg/kg/injection, schedule: Q01DX003 (ip), vehicle: acetone 102 % of control | endpoint: mean survival time, dose: 33.0 mg/kg/injection, schedule: Q01DX009 (ip), vehicle: saline with Tween-80 114 % of control | endpoint: mean survival time, dose: 33.0 mg/kg/injection, schedule: Q01DX009 (ip), vehicle: saline 116 % of control | endpoint: mean survival time, dose: 50.0 mg/kg/injection, schedule: Q01DX003 (ip), vehicle: acetone 96 % of control | endpoint: mean survival time, dose: 50.0 mg/kg/injection, schedule: Q01DX009 (ip), vehicle: saline with Tween-80 122 % of control | endpoint: mean survival time, dose: 75.0 mg/kg/injection, schedule: Q01DX003 (ip), vehicle: acetone 113 % of control | endpoint: mean survival time, dose: 100.0 mg/kg/injection, schedule: Q01DX001 (ip), vehicle: acetone 103 % of control | endpoint: mean survival time, dose: 200.0 mg/kg/injection, schedule: Q01DX001 (ip), vehicle: acetone 114 % of control

O=c1[nH]c(=O)c2nc3ccccc3nc2[nH]1
inactive: [4] 100 % of control | [6] 94 % of control | [8] 93 % of control

CCCCCC/C=C/C#CCCCCCCCC(=O)O
inactive: endpoint: mean survival time, dose: 37.5 mg/kg/injection, schedule: Q01DX009 (ip), vehicle: Klucel (hydroxypropylcellulose) (HPC) 105 % of control | endpoint: mean survival time, dose: 75.0 mg/kg/injection, schedule: Q01DX009 (ip), vehicle: Klucel (hydroxypropylcellulose) (HPC) 98 % of control | endpoint: mean survival time, dose: 150.0 mg/kg/injection, schedule: Q01DX009 (ip), vehicle: Klucel (hydroxypropylcellulose) (HPC) 102 % of control

c1ccc([P+](c2ccccc2)(c2ccccc2)C2CN=NC2)cc1
inactive: [1] 103 % of control | [2] 108 % of control | [3] 112 % of control

Cc1cc(C)cc(OC(=O)/C=C/C(=O)Oc2cc(C)cc(C)c2)c1
inactive: endpoint: mean survival time, dose: 100.0 mg/kg/injection, schedule: Q01DX009 (ip), vehicle: saline with Tween-80 105 % of control | endpoint: mean survival time, dose: 200.0 mg/kg/injection, schedule: Q01DX009 (ip), vehicle: saline with Tween-80 100 % of control | endpoint: mean survival time, dose: 400.0 mg/kg/injection, schedule: Q01DX009 (ip), vehicle: saline with Tween-80 102 % of control

S=P(NC1CCCCC1)(NC1CCCCC1)NC1CCCCC1
inactive: endpoint: mean survival time, dose: 100.0 mg/kg/injection, schedule: Q01DX001 (ip), vehicle: saline 95 % of control | [10] 101 % of control | endpoint: mean survival time, dose: 200.0 mg/kg/injection, schedule: Q01DX001 (ip), vehicle: saline 95 % of control | [11] 97 % of control | endpoint: mean survival time, dose: 400.0 mg/kg/injection, schedule: Q01DX001 (ip), vehicle: saline 90 % of control | endpoint: mean survival time, dose: 400.0 mg/kg/injection, schedule: Q04DX003 (ip), vehicle: saline with Tween-80 97 % of control

Cc1cc(C)c(CCO)c(C)c1
inactive: endpoint: mean survival time, dose: 25.0 mg/kg/injection, schedule: Q01DX009 (ip), vehicle: DMSO 98 % of control | endpoint: mean survival time, dose: 25.0 mg/kg/injection, schedule: Q04DX003 (ip), vehicle: DMSO 93 % of control | endpoint: mean survival time, dose: 50.0 mg/kg/injection, schedule: Q01DX009 (ip), vehicle: DMSO 96 % of control | endpoint: mean survival time, dose: 50.0 mg/kg/injection, schedule: Q04DX003 (ip), vehicle: DMSO 102 % of control | endpoint: mean survival time, dose: 100.0 mg/kg/injection, schedule: Q04DX003 (ip), vehicle: DMSO 102 % of control

[Se]c1ccnc([Se])n1
inactive: [10] 89 % of control | [11] 94 % of control

CCOc1ccc(OCC)c(NC(=O)Nc2cc([N+](=O)[O-])ccc2OC)c1
inactive: endpoint: mean survival time, dose: 50.0 mg/kg/injection, schedule: Q01DX009 (ip), vehicle: Klucel (hydroxypropylcellulose) (HPC) 114 % of control | [4] 93 % of control | [6] 96 % of control

Clc1ccc2c(c1)C(=P(c1ccccc1)(c1ccccc1)c1ccccc1)c1cc(Cl)cc(Cl)c1-2
inactive: endpoint: mean survival time, dose: 100.0 mg/kg/injection, schedule: Q01DX001 (ip), vehicle: Klucel (hydroxypropylcellulose) (HPC) 96 % of control | [5] 102 % of control | endpoint: mean survival time, dose: 200.0 mg/kg/injection, schedule: Q01DX001 (ip), vehicle: Klucel (hydroxypropylcellulose) (HPC) 96 % of control | [7] 95 % of control | endpoint: mean survival time, dose: 400.0 mg/kg/injection, schedule: Q01DX001 (ip), vehicle: Klucel (hydroxypropylcellulose) (HPC) 91 % of control | [9] 93 % of control

O=C1C=C(Nc2ccc(S(=O)(=O)c3ccc(NC4=CC(=O)C(=O)c5ccccc54)cc3)cc2)c2ccccc2C1=O
inactive: endpoint: mean survival time, dose: 75.0 mg/kg/injection, schedule: Q01DX001 (ip), vehicle: saline 93 % of control | endpoint: mean survival time, dose: 150.0 mg/kg/injection, schedule: Q01DX001 (ip), vehicle: saline 96 % of control | endpoint: mean survival time, dose: 300.0 mg/kg/injection, schedule: Q01DX001 (ip), vehicle: saline 96 % of control
